{"source": "patent US7919625B2", "about": "“4-anilino-3-quinolinecarbonitriles for the treatment of chronic myelogenous leukemia (CML)” (Wyeth LLC, priority 2003, dated 2011)", "key": {"[1]": {"target": "T1, Src (Homo sapiens, UniProt P12931)", "T1 sequence (P12931 whole entry)": "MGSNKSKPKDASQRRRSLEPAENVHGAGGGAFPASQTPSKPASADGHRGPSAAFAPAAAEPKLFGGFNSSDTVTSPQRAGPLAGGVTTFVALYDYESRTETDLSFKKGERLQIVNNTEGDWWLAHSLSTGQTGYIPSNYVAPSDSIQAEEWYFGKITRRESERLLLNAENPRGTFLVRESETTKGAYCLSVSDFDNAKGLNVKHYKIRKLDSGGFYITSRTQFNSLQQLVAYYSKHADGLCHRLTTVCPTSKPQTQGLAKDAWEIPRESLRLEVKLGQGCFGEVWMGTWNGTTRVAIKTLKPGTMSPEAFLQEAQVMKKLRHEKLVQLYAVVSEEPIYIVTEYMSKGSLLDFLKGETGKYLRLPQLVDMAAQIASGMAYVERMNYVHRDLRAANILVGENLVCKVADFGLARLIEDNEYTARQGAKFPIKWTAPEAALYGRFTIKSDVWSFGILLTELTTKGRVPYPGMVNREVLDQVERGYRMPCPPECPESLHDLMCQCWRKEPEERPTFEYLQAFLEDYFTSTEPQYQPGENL", "assay": "Src kinase assay, ELISA format"}, "[2]": {"tested_on": "K562 xenografts", "assay": "K562 xenografts in nude mice, tumor-free survival", "format": "in vivo", "excerpt": "Nude mice with K562 xenografts were examined on days 11, 22, 36, and 43. Data is presented as a ratio of animals lacking detectable tumors relative to the number of animals per group. K562 tumors imbedded in Matrigel were staged in nude mice until tumors reached 200-300 mm^3."}, "[3]": {"tested_on": "K562 cells", "assay": "Inhibition of CML cell proliferation, K562", "format": "cell-based", "conditions": "Homo sapiens", "protocol": "(§1) • A. Inhibition of v-Abl-dependent proliferation. Rat 2 cells infected with Abl-murine leukemia virus were grown and treated as described for the Src cell assay. All measurements were identical except for the cell type that Cell-Titer Glo (Promega) was used to monitor relative cell number. In this case, the reagent was used as recommended by the manufacturer and luminescence was measured on a Wallac Victor plate reader. • B. Inhibition of CML cell proliferation. KU812 and K562 cells were grown in RPMI1640 medium supplemented with 10% fetal calf serum and glutamine with 50 μg/ml gentamicin. Cells were plated at 1000-2000 cells per well on Day 0. On Day 1, compound was added such that the final DMSO concentration was no greater than 0.1%. On Day 4, Cell-Titer Glo was added according to manufacturer specifications and luminescence was determined on a Wallac Victor plate reader."}, "[4]": {"tested_on": "Rat 2 cells infected with Abl-murine leukemia virus", "assay": "Inhibition of v-Abl-dependent proliferation", "format": "cell-based", "conditions": "Rat2", "protocol": "Ultra-low cluster plates (Corning Costar, Acton, Mass.) are seeded with 10,000 cells per well on day 1. Alternatively, Ultra-low cluster plates (Costar 3474) treated with Sigmacote (Sigma, St. Louis, Mo.), rinsed with 70% ethanol, after drying in the hood, are seeded with 5000 cells.\nAlternatively relative cell numbers were determined by the CellTiter-Glo™ (Promega) method. All procedures were identical except that cell number was reduced to 1000 cells/well and CellTiter-Glo reagent was added instead of MTS reagent, with luminescence as the readout.\nas §1"}, "[5]": {"tested_on": "KU812 cells", "assay": "Inhibition of CML cell proliferation, KU812", "format": "cell-based", "conditions": "Homo sapiens", "protocol": "as §1"}, "[6]": {"target": "T2, c-Abl (Homo sapiens, UniProt P00519)", "T2 construct": "purchased Panvera P3049", "T2 sequence (P00519 whole entry)": "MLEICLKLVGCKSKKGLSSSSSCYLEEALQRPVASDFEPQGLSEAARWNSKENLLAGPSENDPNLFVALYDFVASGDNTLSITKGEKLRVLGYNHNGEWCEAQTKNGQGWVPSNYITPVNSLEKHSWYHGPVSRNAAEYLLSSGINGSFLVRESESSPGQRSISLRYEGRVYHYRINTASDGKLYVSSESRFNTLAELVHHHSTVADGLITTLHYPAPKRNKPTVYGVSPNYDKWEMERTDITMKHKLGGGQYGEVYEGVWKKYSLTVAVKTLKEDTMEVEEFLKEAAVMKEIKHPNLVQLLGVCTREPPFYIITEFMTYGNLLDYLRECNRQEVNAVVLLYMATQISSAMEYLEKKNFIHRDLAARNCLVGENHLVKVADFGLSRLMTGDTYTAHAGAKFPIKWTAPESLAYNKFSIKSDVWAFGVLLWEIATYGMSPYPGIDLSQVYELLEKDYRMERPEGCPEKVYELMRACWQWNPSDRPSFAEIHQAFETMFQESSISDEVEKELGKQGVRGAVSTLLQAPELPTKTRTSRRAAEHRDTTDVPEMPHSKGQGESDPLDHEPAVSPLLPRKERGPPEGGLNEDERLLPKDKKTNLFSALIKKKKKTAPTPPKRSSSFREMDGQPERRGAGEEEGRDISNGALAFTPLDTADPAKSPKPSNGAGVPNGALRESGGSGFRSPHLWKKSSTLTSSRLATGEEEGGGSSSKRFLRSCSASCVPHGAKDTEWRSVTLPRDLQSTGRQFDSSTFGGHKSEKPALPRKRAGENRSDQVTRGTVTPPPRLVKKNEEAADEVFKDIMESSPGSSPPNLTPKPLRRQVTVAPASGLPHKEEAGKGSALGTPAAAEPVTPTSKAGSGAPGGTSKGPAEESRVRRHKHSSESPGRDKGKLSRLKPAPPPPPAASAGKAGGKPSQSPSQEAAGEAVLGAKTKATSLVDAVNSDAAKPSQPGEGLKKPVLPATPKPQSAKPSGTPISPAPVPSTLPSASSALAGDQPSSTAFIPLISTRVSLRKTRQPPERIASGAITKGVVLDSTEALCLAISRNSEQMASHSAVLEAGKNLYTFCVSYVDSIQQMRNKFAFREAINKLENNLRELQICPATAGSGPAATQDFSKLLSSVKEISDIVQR", "assay": "Homogeneous solution-based Abl kinase assay (Lance)", "format": "biochemical", "conditions": "read-out: c-Abl Enzyme IC50"}, "[7]": {"target": "T1, Src", "assay": "Src kinase assay, homogeneous solution-based (Lance format)", "format": "biochemical", "design": "purchased Upstate Biotechnologies, Lake Placid, N.Y", "conditions": "read-out: Src enzyme IC50"}, "[8]": {"conditions": "read-out: Src enzyme IC50, ELISA format"}}, "note": "pIC50: −log10 of the molar value.", "data": [{"compound": "CCN1CCN(CCCOc2cc3ncc(C#N)c(Nc4cc(OC)c(Cl)cc4Cl)c3cc2OC)CC1", "note": "[Example 2, 4-[(2,4-Dichloro-5-methoxyphenyl)amino]-7-[3-(4-ethyl-1-piperazinyl)propoxy]-6-methoxy-3-quinolinecarbonitrile]", "values": [{"measurement": "pIC50", "setting": "[1]; [8]", "value": 9.11}]}, {"compound": "COc1cc(Nc2c(C#N)cnc3cc(OCCCN4CCN(C)CC4)c(OC)cc23)c(Cl)cc1Cl", "note": "[Example 1, 4-[(2,4-Dichloro-5-methoxyphenyl)amino]-6-methoxy-7-[3-(4-methyl-1-piperazinyl)propoxy]-3-quinolinecarbonitrile]", "values": [{"measurement": "Tumor-free survival (animals lacking detectable tumors / animals per group)", "setting": "[2]; 50 mg/kg p.o. once a day for 5 days, day 11", "value": "6/8"}, {"measurement": "Tumor-free survival (animals lacking detectable tumors / animals per group)", "setting": "[2]; 50 mg/kg p.o. once a day for 5 days, day 22", "value": "5/8"}, {"measurement": "Tumor-free survival (animals lacking detectable tumors / animals per group)", "setting": "[2]; 50 mg/kg p.o. once a day for 5 days, day 36", "value": "4/8"}, {"measurement": "Tumor-free survival (animals lacking detectable tumors / animals per group)", "setting": "[2]; 50 mg/kg p.o. once a day for 5 days, day 43", "value": "4/8"}, {"measurement": "Tumor-free survival (animals lacking detectable tumors / animals per group)", "setting": "[2]; 75 mg/kg p.o. once a day for 5 days, day 11", "value": "7/8"}, {"measurement": "Tumor-free survival (animals lacking detectable tumors / animals per group)", "setting": "[2]; 75 mg/kg p.o. once a day for 5 days, day 22", "value": "6/8"}, {"measurement": "Tumor-free survival (animals lacking detectable tumors / animals per group)", "setting": "[2]; 75 mg/kg p.o. once a day for 5 days, day 36", "value": "6/8"}, {"measurement": "Tumor-free survival (animals lacking detectable tumors / animals per group)", "setting": "[2]; 75 mg/kg p.o. once a day for 5 days, day 43", "value": "6/8"}, {"measurement": "Tumor-free survival (animals lacking detectable tumors / animals per group)", "setting": "[2]; 100 mg/kg p.o. once a day for 5 days, day 11", "value": "8/8"}, {"measurement": "Tumor-free survival (animals lacking detectable tumors / animals per group)", "setting": "[2]; 100 mg/kg p.o. once a day for 5 days, day 22", "value": "7/8"}, {"measurement": "Tumor-free survival (animals lacking detectable tumors / animals per group)", "setting": "[2]; 100 mg/kg p.o. once a day for 5 days, day 36", "value": "7/8"}, {"measurement": "Tumor-free survival (animals lacking detectable tumors / animals per group)", "setting": "[2]; 100 mg/kg p.o. once a day for 5 days, day 43", "value": "7/8"}, {"measurement": "Tumor-free survival (animals lacking detectable tumors / animals per group)", "setting": "[2]; 150 mg/kg p.o. once a day for 5 days, day 11", "value": "8/8"}, {"measurement": "Tumor-free survival (animals lacking detectable tumors / animals per group)", "setting": "[2]; 150 mg/kg p.o. once a day for 5 days, day 22", "value": "8/8"}, {"measurement": "Tumor-free survival (animals lacking detectable tumors / animals per group)", "setting": "[2]; 150 mg/kg p.o. once a day for 5 days, day 36", "value": "8/8"}, {"measurement": "Tumor-free survival (animals lacking detectable tumors / animals per group)", "setting": "[2]; 150 mg/kg p.o. once a day for 5 days, day 43", "value": "8/8"}, {"measurement": "pIC50", "setting": "[3]", "value": 7.70}, {"measurement": "pIC50", "setting": "[4]", "value": 7.12}, {"measurement": "pIC50", "setting": "[5]", "value": 8.30}]}, {"compound": "CCOc1cc2c(Nc3cc(OC)c(Cl)cc3Cl)c(C#N)cnc2cc1OCCC1CCN(C)CC1", "note": "[Example 14, 4-[(2,4-Dichloro-5-methoxyphenyl)amino]-6-ethoxy-7-[2-(1-methylpiperidin-4-yl)ethoxy]quinoline-3-carbonitrile]", "values": [{"measurement": "melting point", "value": "174 to 176", "unit": "°C"}]}, {"compound": "CCOc1cc2c(Nc3cc(OC)c(Cl)cc3Cl)c(C#N)cnc2cc1OCC1CCN(C)CC1", "note": "[Example 10, 4-[(2,4-Dichloro-5-methoxyphenyl)amino]-6-ethoxy-7-[(1-methylpiperidin-4-yl)methoxy]quinoline-3-carbonitrile]", "values": [{"measurement": "melting point", "value": "182 to 186", "unit": "°C"}]}, {"compound": "CCOc1cc2c(Nc3cc(OC)c(Cl)cc3Cl)c(C#N)cnc2cc1OCCCC1CCN(C)CC1", "note": "[Example 12, 4-[(2,4-Dichloro-5-methoxyphenyl)amino]-6-ethoxy-7-[3-(1-methylpiperidin-4-yl)propoxy]quinoline-3-carbonitrile]", "values": [{"measurement": "melting point", "value": "148 to 151", "unit": "°C"}]}, {"compound": "COc1cc(Nc2c(C#N)cnc3cc(OCCCC4CCN(C)CC4)c(OC)cc23)c(Cl)cc1Cl", "note": "[Example 7, 4-[(2,4-Dichloro-5-methoxyphenyl)amino]-6-methoxy-7-[3-(1-methylpiperidin-4-yl)propoxy]quinoline-3-carbonitrile]", "values": [{"measurement": "pIC50", "setting": "[3]", "value": 7.74}, {"measurement": "pIC50", "setting": "[4]", "value": 6.73}, {"measurement": "pIC50", "setting": "[5]", "value": 8.24}]}, {"compound": "CCCN1CCN(CCCOc2cc3ncc(C#N)c(Nc4cc(OC)c(Cl)cc4Cl)c3cc2OC)CC1", "note": "[Example 15, 4-[(2,4-Dichloro-5-methoxyphenyl)amino]-6-methoxy-7-[3-(4-propyl-1-piperazinyl)propoxy]-3-quinolinecarbonitrile]", "values": [{"measurement": "pIC50", "setting": "[1]; [8]", "value": 8.96}]}, {"compound": "COc1cc(Nc2c(C#N)cnc3cc(OCC4CCN(C)CC4)c(OC)cc23)c(Cl)cc1Cl", "note": "[Example 5, 4-[(2,4-Dichloro-5-methoxyphenyl)amino]-6-methoxy-7-[(1-methylpiperidin-4-yl)methoxy]-3-quinolinecarbonitrile]", "values": [{"measurement": "pIC50", "setting": "[3]", "value": 7.41}, {"measurement": "pIC50", "setting": "[4]", "value": 6.21}, {"measurement": "pIC50", "setting": "[6]", "value": 8.54}, {"measurement": "pIC50", "setting": "[5]", "value": 7.87}]}, {"compound": "COc1cc(Nc2c(C#N)cnc3cc(OCCC4CCN(C)CC4)c(OC)cc23)c(Cl)cc1Cl", "note": "[Example 6, 4-[(2,4-Dichloro-5-methoxyphenyl)amino]-6-methoxy-7-[2-(1-methylpiperidin-4-yl)ethoxy]-3-quinolinecarbonitrile]", "values": [{"measurement": "pIC50", "setting": "[3]", "value": 7.39}, {"measurement": "pIC50", "setting": "[4]", "value": 6.34}, {"measurement": "pIC50", "setting": "[6]", "value": 8.54}, {"measurement": "pIC50", "setting": "[5]", "value": 7.85}]}, {"compound": "CCN1CCC(COc2cc3ncc(C#N)c(Nc4cc(OC)c(Cl)cc4Cl)c3cc2OC)CC1", "note": "[Example 8, 4-[(2,4-Dichloro-5-methoxyphenyl)amino]-7-[(1-ethylpiperidin-4-yl)methoxy]-6-methoxyquinoline-3-carbonitrile]", "values": [{"measurement": "melting point", "value": "192 to 195", "unit": "°C"}]}, {"compound": "CCOc1cc(Nc2c(C#N)cnc3cc(OCC4CCN(C)CC4)c(OC)cc23)c(Cl)cc1Cl", "note": "[Example 22, 4-[(2,4-dichloro-5-ethoxyphenyl)amino]-6-methoxy-7-[(1-methylpiperidin-4-yl)methoxy]quinoline-3-carbonitrile]", "values": [{"measurement": "pIC50", "setting": "[7]", "value": 6.64}]}, {"compound": "COc1cc(Nc2c(C#N)cnc3cc(OCCN4CCN(C)CC4)c(OC)cc23)c(Cl)cc1Cl", "note": "[Example 3, 4-[(2,4-Dichloro-5-methoxyphenyl)amino]-6-methoxy-7-[2-(4-methyl-1-piperazinyl)ethoxy]-3-quinolinecarbonitrile]", "values": [{"measurement": "melting point", "value": "165 to 167", "unit": "°C"}, {"measurement": "pIC50", "setting": "[3]", "value": 7.32}, {"measurement": "pIC50", "setting": "[4]", "value": 6.36}]}, {"compound": "CCOc1cc2c(Nc3cc(OC)c(Cl)cc3Cl)c(C#N)cnc2cc1OCCCN1CCN(CC)CC1", "note": "[Example 11, 4-[(2,4-Dichloro-5-methoxyphenyl)amino]-6-ethoxy-7-[3-(4-ethylpiperazin-1-yl)propoxy]quinoline-3-carbonitrile]", "values": [{"measurement": "melting point", "value": "127 to 130", "unit": "°C"}]}, {"compound": "CCOc1cc2c(Nc3cc(OC)c(Cl)cc3Cl)c(C#N)cnc2cc1OCCN1CCN(C)CC1", "note": "[Example 13, 4-[(2,4-Dichloro-5-methoxyphenyl)amino]-6-ethoxy-7-[2-(4-methyl-1-piperazinyl)ethoxy]quinoline-3-carbonitrile]", "values": [{"measurement": "melting point", "value": "141 to 143", "unit": "°C"}]}, {"compound": "CCN1CCN(CCOc2cc3ncc(C#N)c(Nc4cc(OC)c(Cl)cc4Cl)c3cc2OC)CC1", "note": "[Example 4, 4-[(2,4-Dichloro-5-methoxyphenyl)amino]-7-[2-(4-ethyl-1-piperazinyl)ethoxy]-6-methoxy-3-quinolinecarbonitrile]", "values": [{"measurement": "melting point", "value": "101 to 105", "unit": "°C"}]}, {"compound": "CCOc1cc2c(Nc3cc(OC)c(Cl)cc3Cl)c(C#N)cnc2cc1OCCCN1CCN(C)CC1", "note": "[Example 9, 4-[(2,4-Dichloro-5-methoxyphenyl)amino]-6-ethoxy-7-[3-(4-methylpiperazin-1-yl)propoxy]quinoline-3-carbonitrile]", "values": [{"measurement": "pIC50", "setting": "[1]", "value": 8.92}, {"measurement": "melting point", "value": "137 to 138", "unit": "°C"}]}]}
